Source: patent publication US20240277795A1, “INHIBITORS OF CYSTEINE PROTEASES AND METHODS OF USE THEREOF” (Pardes Biosciences, Inc., priority 2021, published 2024)
Like-named read-outs stand apart in the source and are kept apart here.

Legend:
229E Mpro = 229E Mpro (Human coronavirus 229E, UniProt P0C6X1); assay: 229E Mpro enzymatic assay; assay type: biochemical, HCoV 229E; conditions: Table 3
SARS-COV2 Mpro = SARS-COV2 Mpro (Severe acute respiratory syndrome coronavirus 2, UniProt P0DTD1); assay: COVID-19 (nCoV-2019, SARS-CoV2) Mpro enzymatic assay; assay type: biochemical
OC43 Mpro = OC43 Mpro (Human coronavirus OC43, UniProt P0C6X6); assay: OC43 Mpro enzymatic assay; assay type: biochemical, HCoV OC43; conditions: Table 3
HCoV 229E = HCoV 229E cytopathic effect (CPE) assay; assay type: cell-based; conditions: Table 4; CellTiter Glo; read-out: 229E CPE EC50
Protocol: (§1) Compounds were assayed using standard methods against multiple coronaviral strains, including HCoV 229E and OC43 strains. The antiviral activity of compounds was calculated based on the protection of the virus-induced CPE at each concentration normalized by the virus control.
(§2) Reagents and instruments used in this assay include luminescent cell viability assay kit CellTiter Glo (Promega) and Microplate Reader Synergy2 (BioTek).
Cytopathic effect (CPE) was measured by CellTiter Glo following the manufacturer's manual. The antiviral activity of compounds was calculated based on the protection of the virus-induced CPE at each concentration normalized by the virus control.
(§3) The cytotoxicity of compounds was assessed under the same conditions, but without virus infection, in parallel. Cell viability was measured with CellTiter Glo. The antiviral activity and cytotoxicity of compounds were expressed as % Inhibition and % Viability, respectively, and calculated with formulas.

HCov OC43 = assay: HCoV OC43 cytopathic effect (CPE) assay; assay type: cell-based; conditions: Table 4, CellTiter Glo
Protocol: as §1, §2
Reference compound used was remdesivir; detection reagent: CellTiter Glo.) The CPE were measured by CellTiter Glo following the manufacturer's manual. The antiviral activity of compounds was calculated based on the protection of the virus-induced CPE at each concentration normalized by the virus control.
as §3

[1] = test system: SARS-CoV-2 WT replicon in Huh7 cells; assay: microbe, parasite or virus in culture; assay type: cell-based; conditions: Severe acute respiratory syndrome coronavirus 2, Huh-7, 24 h

229E Mpro, sequence (P0C6X1 2966-3267): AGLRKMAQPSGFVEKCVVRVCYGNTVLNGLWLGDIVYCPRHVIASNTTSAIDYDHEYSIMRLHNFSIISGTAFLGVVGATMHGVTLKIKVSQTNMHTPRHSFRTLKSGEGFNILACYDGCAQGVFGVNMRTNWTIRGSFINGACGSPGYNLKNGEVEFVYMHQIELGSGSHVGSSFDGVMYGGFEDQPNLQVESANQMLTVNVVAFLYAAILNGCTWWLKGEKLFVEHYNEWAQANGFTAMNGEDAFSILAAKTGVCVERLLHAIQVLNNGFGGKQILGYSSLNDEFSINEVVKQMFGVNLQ
OC43 Mpro, sequence (P0C6X6 3247-3549): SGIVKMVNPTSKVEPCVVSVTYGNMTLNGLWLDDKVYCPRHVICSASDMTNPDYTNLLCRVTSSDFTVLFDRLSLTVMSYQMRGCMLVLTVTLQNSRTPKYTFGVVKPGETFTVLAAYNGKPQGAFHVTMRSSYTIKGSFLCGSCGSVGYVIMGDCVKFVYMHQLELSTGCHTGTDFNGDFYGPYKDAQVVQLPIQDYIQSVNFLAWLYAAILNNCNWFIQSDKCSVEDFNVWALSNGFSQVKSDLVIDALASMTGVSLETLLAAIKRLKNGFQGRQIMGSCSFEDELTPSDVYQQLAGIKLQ

Structure (SMILES)	IC50 (229E Mpro) [µM]	IC50 (SARS-COV2 Mpro) [µM]	IC50 (OC43 Mpro) [µM]	EC50 (HCoV 229E) [µM]	EC50 (HCov OC43; Betacoronavirus 1, OC43) [µM]	IC50 (SARS-COV2 Mpro; read-out: COVID-19 Mpro IC50, Table 3) [µM]	EC50 (HCov OC43) [µM]	EC50 [1] [µM]
CC(C)(C)[C@H](NC(=O)c1cnccn1)C(=O)N1C[C@H]2[C@@H]([C@H]1C(=O)N[C@H](C#N)C[C@@H]1CCNC1=O)C2(C)C (single isomer, unassigned) [101 Isomer 1]	< 2	< 2	< 2	2 to 10	< 2	–	–	–
CC(C)(C)[C@H](NC(=O)c1cnccn1)C(=O)N1C[C@H]2[C@@H]([C@H]1C(=O)N[C@H](C#N)C[C@@H]1CCNC1=O)C2(C)C (single isomer, unassigned) [101 Isomer 2]	< 2	–	< 2	2 to 10	–	< 2	< 2	–
Cc1cc(C(=O)N[C@@H](Cc2cccc3ccccc23)C(=O)N[C@@H](CC2CC2)C(=O)N[C@H](C#N)C[C@@H]2CCCNC2=O)no1 [Compound 111, N—((S)-1-(((S)-1-(((S)-1-cyano-2-((S)-2-oxopiperidin-3-yl)ethyl)amino)-3-cyclopropyl-1-oxopropan-2-yl)amino)-3-(naphthalen-1-yl)-1-oxopropan-2-yl)-5-methylisoxazole-3-carboxamide]	< 2	2 to 10	< 2	10 to 30	2 to 10	–	–	–
Cc1cc(C(=O)N[C@@H](Cc2ccc(F)cc2)C(=O)N[C@@H](CC(C)C)C(=O)N[C@H](C#N)C[C@@H]2CCCNC2=O)no1 [Compound 113, N—((S)-1-(((S)-1-(((S)-1-cyano-2-((S)-2-oxopiperidin-3-yl)ethyl)amino)-4-methyl-1-oxopentan-2-yl)amino)-3-(4-tluorophenyl)-1-oxopropan-2-yl)-5-methylisoxazole-3-carboxamide]	< 2	< 2	< 2	2 to 10	2 to 10	–	–	–
N#C[C@H](C[C@@H]1CCCNC1=O)NC(=O)[C@H](CC1CC1)NC(=O)[C@H](Cc1cccc2ccccc12)NC(=O)c1cnccn1 [Compound 115, N—((S)-1-(((S)-1-(((S)-1-cyano-2-((S)-2-oxopiperidin-3-yl)ethyl)amino)-3-cyclopropyl-1-oxopropan-2-yl)amino)-3-(naphthalen-1-yl)-1-oxopropan-2-yl)pyrazine-2-carboxamide]	< 2	2 to 10	< 2	2 to 10	2 to 10	–	–	–
N#C[C@H](C[C@@H]1CCCNC1=O)NC(=O)[C@H](CC1CC1)NC(=O)[C@H](Cc1cccc2ccccc12)NC(=O)OCc1ccccc1 [Compound 116, Benzyl((S)-1-(((S)-1-(((S)-1-cyano-2-((S)-2-oxopiperidin-3-yl)ethyl)amino)-3-cyclopropyl-1-oxopropan-2-yl)amino)-3-(naphthalen-1-yl)-1-oxopropan-2-yl)carbamate]	< 2	< 2	< 2	2 to 10	< 2	–	–	–
CC1(C)C[C@@H](C[C@@H](C#N)NC(=O)[C@H](CC2CC2)NC(=O)[C@H](Cc2cccc3ccccc23)NC(=O)c2cnccn2)C(=O)N1 [Compound 118, N—((S)-1-(((S)-1-(((S)-1-cyano-2-((R)-5,5-dimethyl-2-oxopyrrolidin-3-yl)ethyl)amino)-3-cyclopropyl-1-oxopropan-2-yl)amino)-3-(naphthalen-1-yl)-1-oxopropan-2-yl)pyrazine-2-carboxamide]	< 2	2 to 10	< 2	2 to 10	2 to 10	–	–	–
N#C[C@H](C[C@@H]1CCNC1=O)NC(=O)[C@H](CC1CC1)NC(=O)[C@H](Cc1cccc2ccccc12)NC(=O)c1cnccn1 [Compound 119, N—((S)-1-(((S)-1-(((S)-1-cyano-2-((S)-2-oxopyrrolidin-3-yl)ethyl)amino)-3-cyclopropyl-1-oxopropan-2-yl)amino)-3-(naphthalen-1-yl)-1-oxopropan-2-yl)pyrazine-2-carboxamide]	< 2	2 to 10	< 2	10 to 30	2 to 10	–	–	–
Cc1cc(C(=O)N[C@@H](Cc2cccc3ccccc23)C(=O)N[C@@H](CC2CC2)C(=O)N[C@H](C#N)C[C@@H]2CC(C)(C)NC2=O)no1 [Compound 120, N—((S)-1-(((S)-1-(((S)-1-cyano-2-((R)-5,5-dimethyl-2-oxopyrrolidin-3-yl)ethyl)amino)-3-cyclopropyl-1-oxopropan-2-yl)amino)-3-(naphthalen-1-yl)-1-oxopropan-2-yl)-5-methylisoxazole-3-carboxamide]	< 2	2 to 10	< 2	2 to 10	< 2	–	–	–
Cc1cc(C(=O)N[C@@H](Cc2cccc3ccccc23)C(=O)N[C@@H](CC2CC2)C(=O)N[C@H](C#N)C[C@@H]2CCNC2=O)no1 [Compound 121, N—((S)-1-(((S)-1-(((S)-1-cyano-2-((S)-2-oxopyrrolidin-3-yl)ethyl)amino)-3-cyclopropyl-1-oxopropan-2-yl)amino)-3-(naphthalen-1-yl)-1-oxopropan-2-yl)-5-methylisoxazole-3-carboxamide]	< 2	2 to 10	< 2	2 to 10	2 to 10	–	–	–
N#C[C@H](C[C@@H]1CCCNC1=O)NC(=O)[C@H](CC1CC1)NC(=O)[C@H](Cc1ccc(F)cc1)NC(=O)OCc1ccccc1 [Compound 123]	< 2	10 to 30	2 to 10	10 to 30	10 to 30	–	–	–
N#C[C@H](C[C@@H]1CCNC1=O)NC(=O)C(CC1CCC(F)(F)CC1)NC(=O)[C@H](Cc1cccc2ccccc12)NC(=O)OCc1ccccc1 (stereo partly drawn) [Compound 128, benzylN-[(1S)-2-[[2-[[(1S)-1-cyano-2-[(3S)-2-oxopyrrolidin-3-yl]ethyl]amino]-1-[(4,4-difluorocyclohexyl)methyl]-2-oxo-ethyl]amino]-1-(1-naphthylmethyl)-2-oxo-ethyl]carbamate]	< 2	< 2	< 2	< 2	< 2	–	–	–
C[C@@H](OC1(C)CCC1)[C@H](NC(=O)C(F)(F)F)C(=O)N1C[C@H]2[C@@H]([C@H]1C(=O)N[C@H](C#N)C[C@@H]1CCCNC1=O)C2(C)C [Compound 376]	–	–	–	–	–	–	–	< 2
CC1(C)[C@@H]2[C@@H](C(=O)N[C@H](C#N)C[C@@H]3CCCNC3=O)N(C(=O)[C@@H](NC(=O)C(F)(F)F)C3CC3)C[C@@H]21 [Compound 377]	–	–	–	–	–	–	–	< 2
C[C@@H](OC1CC1)[C@H](NC(=O)C(F)(F)F)C(=O)N1C[C@H]2[C@@H]([C@H]1C(=O)N[C@H](C#N)C[C@@H]1CCCNC1=O)C2(C)C [Compound 378]	–	–	–	–	–	–	–	< 2
